Molecular target: human mGluR5 (Homo sapiens, UniProt P41594)
Test: cell-based
Conditions: not given

Chain of human mGluR5 (P41594 21-1212): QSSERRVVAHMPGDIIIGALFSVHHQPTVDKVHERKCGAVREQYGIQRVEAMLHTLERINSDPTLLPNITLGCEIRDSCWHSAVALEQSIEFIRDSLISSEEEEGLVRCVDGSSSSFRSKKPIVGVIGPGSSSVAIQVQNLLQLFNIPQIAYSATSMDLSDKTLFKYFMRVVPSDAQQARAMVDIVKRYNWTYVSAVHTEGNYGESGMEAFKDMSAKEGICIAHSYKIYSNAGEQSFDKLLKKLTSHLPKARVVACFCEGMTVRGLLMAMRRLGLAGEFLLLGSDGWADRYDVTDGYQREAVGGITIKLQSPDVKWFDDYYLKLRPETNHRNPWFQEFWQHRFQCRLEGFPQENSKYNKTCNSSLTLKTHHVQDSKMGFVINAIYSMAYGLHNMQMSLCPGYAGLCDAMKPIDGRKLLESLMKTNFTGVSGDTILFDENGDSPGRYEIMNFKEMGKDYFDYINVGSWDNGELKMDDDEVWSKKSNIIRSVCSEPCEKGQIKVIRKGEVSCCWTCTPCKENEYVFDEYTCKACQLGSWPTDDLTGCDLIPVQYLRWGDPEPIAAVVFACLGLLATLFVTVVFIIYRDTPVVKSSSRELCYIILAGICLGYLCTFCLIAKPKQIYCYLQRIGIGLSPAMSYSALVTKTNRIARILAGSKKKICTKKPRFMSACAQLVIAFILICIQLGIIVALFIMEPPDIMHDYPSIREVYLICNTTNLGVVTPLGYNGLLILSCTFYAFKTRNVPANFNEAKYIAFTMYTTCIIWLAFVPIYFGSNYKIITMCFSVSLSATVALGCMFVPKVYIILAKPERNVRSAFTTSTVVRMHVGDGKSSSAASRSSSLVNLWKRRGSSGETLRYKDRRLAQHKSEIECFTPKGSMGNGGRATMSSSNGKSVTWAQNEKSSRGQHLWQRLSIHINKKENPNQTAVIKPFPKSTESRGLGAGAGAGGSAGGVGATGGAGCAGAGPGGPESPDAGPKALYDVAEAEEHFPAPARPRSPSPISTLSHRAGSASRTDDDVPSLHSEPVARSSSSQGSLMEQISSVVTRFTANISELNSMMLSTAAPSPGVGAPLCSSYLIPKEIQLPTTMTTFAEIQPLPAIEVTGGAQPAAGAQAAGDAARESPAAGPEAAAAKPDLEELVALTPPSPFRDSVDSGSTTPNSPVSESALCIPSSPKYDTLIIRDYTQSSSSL

Row | SMILES | IC50 [nM]
1 | O=C(Nc1cc(Cl)cc(Oc2cncnc2)c1)c1cccc(Cl)c1 | 30
2 | N#Cc1cccc(C(=O)Nc2cccc(Oc3cncc(F)c3)c2)c1 | 249
3 | N#Cc1cc(NC(=O)c2cccc(Br)c2)cc(Oc2cncnc2)c1 | 94
4 | CN(c1cncnc1)c1cc(NC(=O)c2cccc(Cl)c2)ccc1F | 11
5 | N#Cc1cccc(C(=O)Nc2cc(F)cc(Oc3cncnc3)c2)c1 [drawing 665] | 60

Molecular target: T1, rat mGluR5 (Rattus norvegicus, UniProt P31424)
Test: not given
Conditions: read-out: mGluR5, IC50 rat; HEK cells expressing rat mGluR5

T1 sequence (P31424 21-1203): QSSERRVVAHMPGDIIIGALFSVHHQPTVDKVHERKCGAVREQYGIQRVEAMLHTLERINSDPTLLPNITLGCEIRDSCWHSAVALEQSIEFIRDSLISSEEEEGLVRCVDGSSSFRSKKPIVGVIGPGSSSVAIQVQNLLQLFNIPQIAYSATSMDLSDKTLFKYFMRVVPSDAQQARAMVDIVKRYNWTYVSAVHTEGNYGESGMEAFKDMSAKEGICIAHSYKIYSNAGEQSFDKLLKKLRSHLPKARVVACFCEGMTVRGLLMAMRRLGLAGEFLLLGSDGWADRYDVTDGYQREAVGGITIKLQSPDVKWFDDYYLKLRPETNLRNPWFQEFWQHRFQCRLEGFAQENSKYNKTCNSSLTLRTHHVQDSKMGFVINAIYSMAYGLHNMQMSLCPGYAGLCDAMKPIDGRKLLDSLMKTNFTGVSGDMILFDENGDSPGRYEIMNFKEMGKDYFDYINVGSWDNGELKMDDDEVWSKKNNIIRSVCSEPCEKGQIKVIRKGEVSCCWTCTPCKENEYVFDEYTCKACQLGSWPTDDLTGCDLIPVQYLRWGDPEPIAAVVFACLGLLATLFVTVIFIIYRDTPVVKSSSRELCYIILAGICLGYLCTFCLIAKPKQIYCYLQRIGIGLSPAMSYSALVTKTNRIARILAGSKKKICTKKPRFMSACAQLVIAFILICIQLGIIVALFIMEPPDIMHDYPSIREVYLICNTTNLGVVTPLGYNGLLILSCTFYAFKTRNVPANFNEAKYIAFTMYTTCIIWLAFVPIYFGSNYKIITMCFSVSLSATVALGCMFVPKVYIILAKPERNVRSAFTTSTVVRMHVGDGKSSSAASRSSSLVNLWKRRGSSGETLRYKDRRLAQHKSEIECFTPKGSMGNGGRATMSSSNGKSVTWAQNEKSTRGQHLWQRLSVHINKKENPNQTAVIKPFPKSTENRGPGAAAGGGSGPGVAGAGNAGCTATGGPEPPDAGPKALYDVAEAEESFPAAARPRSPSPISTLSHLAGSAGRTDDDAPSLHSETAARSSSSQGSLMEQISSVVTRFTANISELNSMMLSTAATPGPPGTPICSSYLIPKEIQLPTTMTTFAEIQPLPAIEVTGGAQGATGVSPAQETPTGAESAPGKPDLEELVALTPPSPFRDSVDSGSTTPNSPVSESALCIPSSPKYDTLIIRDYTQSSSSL

Row | SMILES | IC50 [nM]
6 | N#Cc1cccc(C(=O)Nc2cc(F)cc(Oc3cncnc3)c2)c1 [drawing 665] | 61 ± 15

Molecular target: T1, rat mGluR5
Test: cell-based
Conditions: not given

Row | SMILES | IC50 [nM]
7 | Cc1ncccc1Oc1cccc(NC(=O)c2cccc(Cl)c2)c1 | 2230
8 | Cc1cccc(C(=O)Nc2cccc(Oc3cccnc3)c2)c1 | 286
9 | O=C(Nc1cccc(Oc2cccnc2)c1)c1cccc(C(F)(F)F)c1 | 5990
10 | N#Cc1cccc(C(=O)Nc2cccc(Oc3cccnc3)c2)c1 | 536
11 | O=C(Nc1cccc(Oc2cccnc2)c1)c1ccc(F)c(Cl)c1 | 6250
12 | O=C(Nc1cccc(Oc2cccnc2)c1)c1cccc(F)n1 | 3530
13 | COc1cccc(C(=O)Nc2cccc(Oc3cccnc3)c2)n1 | 8340
14 | O=C(Nc1cccc(Oc2cccnc2)c1)c1cscn1 | 1270
15 | O=C(Nc1cccc(Oc2cccnc2)c1)c1nccs1 | 1600
16 | Cc1nc(C(=O)Nc2cccc(Oc3cccnc3)c2)cs1 | 4210
17 | Cc1csc(C(=O)Nc2cccc(Oc3cccnc3)c2)n1 | 465
18 | O=C(Nc1cc(Oc2cccnc2)cc(C(F)(F)F)c1)c1cccc(Cl)c1 | > 30000
19 | N#Cc1cccc(C(=O)Nc2cc(Cl)cc(Oc3cncnc3)c2)c1 | 63 ± 9
20 | Cc1ccc(Oc2cc(Cl)cc(NC(=O)c3cccc(Cl)c3)c2)cn1 | > 10000
21 | Cc1cccc(C(=O)Nc2cc(Cl)cc(Oc3ccc(C)nc3)c2)c1 | 6870
22 | O=C(Nc1cccc(Oc2cncnc2)c1)c1cccc(Cl)c1 | 75 ± 13
23 | CN(c1cccnc1)c1cccc(NC(=O)c2cccc(Cl)c2)c1 | 31 ± 5
24 | CCN(c1cccnc1)c1cccc(NC(=O)c2cccc(Cl)c2)c1 | 111 ± 21
25 | CCCN(c1cccnc1)c1cccc(NC(=O)c2cccc(Cl)c2)c1 | 5490
26 | CN(c1cccnc1)c1cccc(NC(=O)c2cccc(Br)c2)c1 | 83
27 | O=C(Nc1cccc(Oc2cccnc2)c1)c1cccc(Cl)c1F | > 10000
28 | N#Cc1cccc(C(=O)Nc2cccc(Oc3cncc(Cl)c3)c2)c1 | 155
29 | O=C(Nc1cccc(Oc2cncc(F)c2)c1)c1cccc(Br)c1 | 124

Row | SMILES | IC50 [nM]
30 | O=C(Nc1cc(Cl)cc(Oc2cncc(F)c2)c1)c1cccc(Cl)n1 | 5370
31 | N#Cc1cccc(C(=O)Nc2cccc(Oc3cncnc3)c2)c1 | 580
32 | N#Cc1cc(NC(=O)c2cccc(C#N)c2)cc(Oc2cncnc2)c1 | 443
33 | O=C(Nc1cccc(Oc2cncnc2)c1)c1cccc(Br)c1 | 53
34 | O=C(Nc1cc(F)cc(Oc2cncnc2)c1)c1cccc(F)n1 | 2560
35 | COc1cccc(C(=O)Nc2cc(F)cc(Oc3cncnc3)c2)c1 | 311
36 | O=C(Nc1cc(F)cc(Oc2cncnc2)c1)c1cccc(F)c1 | 288
37 | N#Cc1ccc(F)c(C(=O)Nc2cc(F)cc(Oc3cncnc3)c2)c1 | 87
38 | O=C(Nc1cc(F)c(F)c(Oc2cncnc2)c1)c1cc(F)ccn1 | 1690
39 | N#Cc1cc(C(=O)Nc2cc(F)cc(Oc3cncnc3)c2)ccc1F | 1640
40 | O=C(Nc1cc(F)cc(Oc2cncnc2)c1)c1cccc(OC(F)(F)F)c1 | 417
41 | O=C(Nc1cc(F)c(F)c(Oc2cncnc2)c1)c1ccc(F)cn1 | 5420
42 | CC(C)Oc1ccnc(C(=O)Nc2cc(F)cc(Oc3cncnc3)c2)c1 | 230
43 | COc1ccnc(C(=O)Nc2cc(C#N)cc(Oc3cncnc3)c2)c1 | 63
44 | CCN(c1cccnc1)c1cc(F)cc(NC(=O)c2cccc(Cl)c2)c1 | 388
45 | CCN(c1cccnc1)c1cc(F)cc(NC(=O)c2cccc(Br)c2)c1 | 656
46 | CCN(c1cccnc1)c1cccc(NC(=O)c2cccc(Br)c2)c1 | 208
47 | CCN(c1cccnc1)c1cccc(NC(=O)c2cccc(C#N)c2)c1 | 120
48 | CN(c1cncc(Cl)c1)c1cccc(NC(=O)c2cccc(Cl)c2)c1 | > 10000
49 | CN(c1cncc(Cl)c1)c1cccc(NC(=O)c2cccc(C#N)c2)c1 | > 10000
50 | CCN(c1cncnc1)c1cccc(NC(=O)c2cccc(C#N)c2)c1 | 43
51 | CN(c1cncnc1)c1cccc(NC(=O)c2cccc(C#N)c2)c1 | 84 ± 14
52 | CN(c1cncnc1)c1cccc(NC(=O)c2cccc(F)c2)c1 | 21 ± 4

Row | SMILES | IC50 [nM]
53 | COc1cccc(C(=O)Nc2cccc(N(C)c3cncnc3)c2)c1 | 108 ± 32
54 | CN(c1cncnc1)c1cccc(NC(=O)c2cccc(C(F)(F)F)n2)c1 | 34 ± 7
55 | CN(c1cncnc1)c1cc(Cl)cc(NC(=O)c2cccc(Cl)c2)c1 | 138
56 | CN(c1cncnc1)c1cc(NC(=O)c2cccc(Br)c2)ccc1Cl | 36
57 | CN(c1cncnc1)c1cc(NC(=O)c2cccc(C#N)c2)ccc1Cl | 59
58 | CN(c1cncnc1)c1cc(NC(=O)c2cccc(Br)c2)ccc1F | 14
59 | CN(c1cncnc1)c1cc(NC(=O)c2cccc(C#N)c2)ccc1F | 51
60 | CN(c1cncnc1)c1ccc(F)c(NC(=O)c2cccc(Cl)c2)c1 | 80
61 | CN(c1cncnc1)c1cc(F)cc(NC(=O)c2cccc(F)c2)c1 | 127
62 | CN(c1cncnc1)c1cc(NC(=O)c2cccc(F)c2)ccc1Cl | 16
63 | CN(c1cncnc1)c1cc(NC(=O)c2cccc(F)n2)ccc1F | 8.6
64 | CN(c1cncnc1)c1cc(NC(=O)c2cccc(F)c2)ccc1F | 9.8
65 | CN(c1cncnc1)c1cc(NC(=O)c2cccc(C#N)c2)cc(F)c1F | 148
66 | CC(C)CN(c1cncnc1)c1cc(NC(=O)c2cccc(Cl)c2)ccc1Cl | > 10000
67 | [2H]C([2H])([2H])N(c1cncnc1)c1cc(NC(=O)c2cccc(C#N)c2)ccc1Cl | 84
68 | CN(c1cncnc1)c1cc(NC(=O)c2cccc(F)c2)cc(F)c1F | 28
69 | CN(c1cncnc1)c1cc(NC(=O)c2cscn2)cc(F)c1F | 80
70 | CN(c1cncnc1)c1cc(NC(=O)c2cccc(O)n2)ccc1F | 2910
71 | N#Cc1cc(NC(=O)c2cc(Cl)ccn2)cc(Oc2cncnc2)c1 | 16
72 | N#Cc1cc(NC(=O)c2cc(Br)ccn2)cc(Oc2cncnc2)c1 | 17
73 | N#Cc1cccc(C(=O)Nc2cc(F)cc(Oc3cncnc3)c2)c1 [drawing 550] | 61 ± 15
